Measurements taken from patent publication US8221729B2, “Use of aminophenylbenzotriazole derivatives for protecting human and animal skin and hair from the harmful effects of UV radiation and cosmetic compositions thereof” (BASF SE, priority 2006, dated 2012).

Experiment: UV-spectrum in ethanol
Assay type: physicochemical
Details: for UV-spectrum: ε: at λmax, in M-1cm-1 (unit assumed)

Structure (SMILES): CCCCCC(=O)Nc1ccc(-n2nc3ccccc3n2)c(O)c1 [Example A-2]
- UV-spectrum: λmax: 346 nm
- UV-spectrum: ε: 29933

Structure (SMILES): CCN(CC)c1ccc(-n2nc3ccccc3n2)c(O)c1 [Example A-1]
- UV-spectrum: λmax: 385 nm
- UV-spectrum: ε: 29591
